From patent publication US9339458B2, “Use of vaginal insulin sensitizing agents” (ITF RESEARCH PHARMA, S.L.U., priority 2009, dated 2016)

Legend:
[1] = system: non-insulin dependent model for polycystic ovary syndrome (PCOS) induced by dehydroepiandrosterone (DHEA) in rats; experiment: Concentration of testosterone in plasma, DHEA-induced PCOS model in rats; type: in vivo, Sprague-Dawley rats
Method: (§1) The study objective was to assess the effect of metformin in a non-insulin dependent model for polycystic ovary syndrome (PCOS) induced by dehydroepiandrosterone (DHEA) in rats.
(§2) The formulations to be tested were: • Gels with Metformin at a concentration of 2 mg/mL (FT-147), 20 mg/mL (FT-148) and 200 mg/mL (FT-149). • Gel without Metformin (Placebo; FT-150).
(§3) Female 2-3 weeks-old Sprague-Dawley rats were used.
(§4) Four experimental groups with 8 animals each were used in the study: • Group A: Control=Placebo+DHEA • Group B: Dose 1 Trial Substance (0.016 mg/animal)+DHEA • Group C: Dose 2 Trial Substance (0.16 mg/animal)+DHEA • Group D: Dose 3 Trial Substance (1.6 mg/animal)+DHEA
Each animal's dose was calculated based on the concentration of each formulation and the administration volume: • Dose 1: formulation of 2 mg/mL with administration of 8 μl/animal=0.016 mg/animal • Dose 2: formulation of 20 mg/mL with administration of 8 μl/animal=0.16 mg/animal • Dose 3: formulation of 200 mg/mL with administration of 8 μl/animal=1.6 mg/animal […]
Plasma was obtained from each blood sample by centrifugation at 5000 g for 5 minutes, which was frozen for later assessment (quantitative determinations) of testosterone levels by rat-specific commercial immunoassay kits (EIA).
Testosterone concentrations in the plasma samples from all animals were determined at the end of the study (Day 15).

[2] = system: non-insulin dependent model for polycystic ovary syndrome (PCOS) induced by dehydroepiandrosterone (DHEA) in rats; experiment: Histological assessment of ovaries (no. of atretic follicles), DHEA-induced PCOS model in rats; type: in vivo, Sprague-Dawley rats
Method: as §1, §2, §3, §4
Each animal's dose was calculated based on the concentration of each formulation and the administration volume: • Dose 1: formulation of 2 mg/mL with administration of 8 μl/animal=0.016 mg/animal • Dose 2: formulation of 20 mg/mL with administration of 8 μl/animal=0.16 mg/animal • Dose 3: formulation of 200 mg/mL with administration of 8 μl/animal=1.6 mg/animal
The trial substance (doses of 0.016, 0.16 and 1.6 mg/animal) and the control substance were administered intravaginally as an aqueous gel at a volume of 8 μl/animal.
The DHEA solution was prepared in a sesame seed oil prior to administration and was injected subcutaneously in a skin fold in the posterior thoracic area (dorsal) at a volume of 0.2 mL. […]

CN(C)C(=N)NC(=N)N [metformin, N,N-dimethylimidodicarbonimidic diamide]
Testosterone plasma levels versus control group ([1]; high dose, intravaginal): very significant reduction | Plasma levels of testosterone ([1]; vaginal administration): significantly decreases | Number of atretic follicles versus control group ([2]; intermediate dose, intravaginal): significant reduction | Number of atretic follicles in the polycystic ovaries ([2]; vaginal administration): a decrease
